According to patent US20120010292A1, “MODIFICATION I OF 4-(PHENYL)ETHYL]-AMINO}METHYL)BENZOIC ACID” (BAYER SCHERING PHARMA AKTIENGESELLSCHAFT, priority 2008, published 2012):

Experiment: Stability of the crystal modification (thermodynamic and storage stability)
Type: physicochemical
Conditions: for thermodynamic stability of the crystal modification: solid form of the compound of the formula (I)

Row | storage stability (even after processing to suspensions) | thermodynamic stability of the crystal modification | Compound
1 | storage-stable | thermodynamically stable | O=C(O)CCCCN(CCc1ccccc1OCc1ccc(CCc2ccccc2)cc1)Cc1ccc(C(=O)O)cc1 [modification I, 4-({(4-carboxybutyl)[2-(2-{[4-(2-phenylethyl)benzyl]oxy}phenyl)ethyl]amino}-methyl)benzoic acid]
2 |  | metastable | O=C(O)CCCCN(CCc1ccccc1OCc1ccc(CCc2ccccc2)cc1)Cc1ccc(C(=O)O)cc1 [modification IV, 4-({(4-Carboxybutyl)[2-(2-{[4-(2-phenylethyl)benzyl]oxy}phenyl)ethyl]amino}methyl)benzoic acid]
